# How the values were obtained:
# [1] = target: T1, human adenosine A2A receptor (Homo sapiens, UniProt P29274); assay: [3H]-SCH-58261 binding assay, human adenosine A2A receptor; conditions: [3H]-SCH-58261 1 nM; membranes of CHO cells expressing the recombinant receptor; Ki by Cheng-Prussoff; read-out: hA2 (pKi) (converted)
# T1 construct: expressed in transfected cells; host or cells: CHO cells, Semliki Forest virus expression system; membrane preparation
# Protocol: Human Adenosine A2A Receptor
# The human adenosine A2A receptor was recombinantly expressed in Chinese hamster ovary (CHO) cells using the semliki forest virus expression system. Cells were harvested, washed twice by centrifugation, homogenized and again washed by centrifugation. The final washed membrane pellet was suspended in a Tris (50 mM) buffer containing 120 mM NaCl, 5 mM KCl, 2 mM CaCl2 and 10 mM MgCl2 (pH 7.4) (buffer A). The [^3H]-SCH-58261 (Dionisotti et al., 1997, Br J Pharmacol 121, 353; 1 nM) binding assay was carried out in 96-well plates in the presence of 2.5 μg of membrane protein, 0.5 mg of Ysi-poly-1-lysine SPA beads and 0.1 U adenosine deaminase in a final volume of 200 μl of buffer A. Non-specific binding was defined using xanthine amine congener (XAC; 2 μM). Compounds were tested at 10 concentrations from 10 μM-0.3 nM. All assays were conducted in duplicate and repeated at least two times. Assay plates were incubated for 1 hour at room temperature before centrifugation and then bound ligand determined using a Packard Topcount scintillation counter. IC50 values were calculated using a non-linear curve fitting program and Ki values calculated using the Cheng-Prussoff equation.
# T1 sequence (P29274 whole entry): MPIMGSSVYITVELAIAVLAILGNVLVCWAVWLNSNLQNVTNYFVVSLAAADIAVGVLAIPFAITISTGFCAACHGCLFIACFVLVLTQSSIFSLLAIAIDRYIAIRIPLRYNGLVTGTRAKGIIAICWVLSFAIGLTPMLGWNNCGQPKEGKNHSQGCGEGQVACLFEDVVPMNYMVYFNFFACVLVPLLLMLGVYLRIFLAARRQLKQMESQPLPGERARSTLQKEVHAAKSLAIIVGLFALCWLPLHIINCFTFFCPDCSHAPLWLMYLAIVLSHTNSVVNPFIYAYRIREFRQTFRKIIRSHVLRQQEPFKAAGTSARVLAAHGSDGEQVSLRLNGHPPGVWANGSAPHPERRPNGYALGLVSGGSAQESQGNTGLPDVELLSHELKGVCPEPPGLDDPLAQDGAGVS
Ki [1],melting point,SMILES
25.1 nM,198 to 200 °C,"COc1ccc(N2CCOCC2)c2sc(NC(=O)O[C@@H]3CCOC3)nc12 [Example 10, (R)-(4-Methoxy-7-morpholin-4-yl-benzothiazol-2-yl)-carbamic acid tetrahydro-furan-3-yl ester]"
6.31 nM,176 to 179 °C,"COc1ccc(N2CCOCC2)c2sc(NC(=O)O[C@H]3CC[C@H](O)CC3)nc12 [Example 6, (tran)s-(4-Methoxy-7-morpholin-4-yl-benzothiazol-2-yl)-carbamic acid 4-hydroxy-cyclohexyl ester]"
7.94 nM,177 to 179 °C,"COc1ccc(N2CCOCC2)c2sc(NC(=O)OC3CCCCC3)nc12 [Example 5, (4-Methoxy-7-morpholin-4-yl-benzothiazol-2-yl)-carbamic acid cyclohexyl ester]"
15.8 nM,188 to 189 °C,"COc1ccc(N2CCOCC2)c2sc(NC(=O)OC3CCC(O)C3)nc12 (mixture of isomers) [Example 11, (cis/trans)-(4-Methoxy-7-morpholin-4-yl-benzothiazol-2-yl)-carbamic acid 3-hydroxy-cyclopentyl ester]"
7.94 nM,187 to 188 °C,"COc1ccc(N2CCOCC2)c2sc(NC(=O)OC3CCOCC3)nc12 [Example 8, (4-Methoxy-7-morpholin-4-yl-benzothiazol-2-yl)-carbamic acid tetrahydro-pyran-4-yl ester]"
10 nM,204 to 206 °C,"COc1ccc(N2CCOCC2)c2sc(NC(=O)O[C@H]3CC[C@@H](O)CC3)nc12 [Example 7, (cis)-(4-Methoxy-7-morpholin-4-yl-benzothiazol-2-yl)-carbamic acid 4-hydroxy-cydohexyl ester]"

# Continued, compound first:
SMILES,Ki [1],melting point
"COc1ccc(C2CCOCC2)c2sc(NC(=O)O[C@H]3CC[C@H](O)CC3)nc12 [Example 1, (trans)-[4-Methoxy-7-(tetrahydro-pyran-4-yl)-benzothiazol-2-yl]-carbamic acid 4-hydroxy-cyclohexyl ester]",2 nM,282 to 284 °C
"COCCOC(=O)Nc1nc2c(OC)ccc(N3CCOCC3)c2s1 [Example 3, (4-Methoxy-7-morpholin-4-yl-benzothiazol-2-yl)-carbamic acid 2-methoxy-ethyl ester]",12.6 nM,149 to 152 °C
"COc1ccc(N2CCOCC2)c2sc(NC(=O)OC3CC4CC3CC4O)nc12 (racemic) [Example 9, (rac)-(exo,exo)-(4-Methoxy-7-morpholin-4-yl-benzothiazol-2-yl)-carbamic acid 5-hydroxy-bicyclo[2.2.1]hept-2-yl ester]",3.98 nM,193 to 194 °C
"CCOC(=O)Nc1nc2c(OC)ccc(C3CCOCC3)c2s1 [Example 2, [4-Methoxy-7-(tetrahydro-pyran-4-yl)-benzothiazol-2-yl]-carbamic acid ethyl ester]",5.01 nM,170 to 174 °C
"COc1ccc(N2CCOCC2)c2sc(NC(=O)OCC(C)C)nc12 [Example 4, (4-Methoxy-7-morpholin-4-yl-benzothiazol-2-yl)-carbamic acid isobutyl ester]",25.1 nM,164 to 168 °C
"COc1ccc(C2CCOCC2)c2sc(NC(=O)O[C@H]3CCOC3)nc12 [Example 13, [4-Methoxy-7-(tetrahydro-pyran-4-yl)-benzothiazol-2-yl]-carbamic acid (S)-(tetrahydro-furan-3-yl) ester]",3.98 nM,195 to 200 °C
"COc1ccc(C2CCOCC2)c2sc(NC(=O)OCC3CCCO3)nc12 (centres unmarked) [Example 12, [4-Methoxy-7-(tetrahydro-pyran-4-yl)-benzothiazol-2-yl]-carbamic acid tetrahydro-furan-2-ylmethyl ester]",12.6 nM,175 to 180 °C
